From ChEMBL document CHEMBL1201862, “PubChem BioAssay data set” (2004) come the findings set out here.

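In this assay, cells in 96-well plates receive the compound at five concentrations for 48 hours. Endpoints are linearly interpolated between the surrounding concentrations. The concentration for 50% growth inhibition is given as GI50.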 Active and inactive are the calls of the source. Cut-off read from the data, not from the text of the source: active = GI50 up to about 1.1 µM and inactive = higher.

Holding throughout (test): NCI tumour cell line growth inhibition, 48 h
In assay [1] the test system is SNB-19.
The test system of assay [2] is M14.
Assay [3] relates to SN12C.
In assay [4] the test system is KM12.
Assay [5] has as its system DU-145.
The subject of assay [6] is SK-MEL-2.
The subject of assay [7] is A549.
Assay [8] concerns SK-OV-3.
Assay [9] concerns T47D.
Assay [10] deals with OVCAR-8.
The test system of assay [11] is Hs-578T.
Assay [12] concerns EKVX.
For assay [13], the system named is MDA-MB-435.
Assay [14] concerns Malme-3M.
For assay [15], the system named is NCI-H226.
For assay [16], the system named is SW-620.

Consider `Oc1ccc2ccccc2c1Cc1c(O)ccc2ccccc12`, for which the GI50 is 18.4 µM (inactive) in [1]; 16.7 µM (inactive) in assay [2]; 16.2 µM (inactive) in [3]; 18.2 µM (inactive) in [4]; 17.9 µM (inactive) in assay [5]; 18.6 µM (inactive) in assay [6]. Further, the GI50 in [7] is 18.1 µM (inactive); in assay [8] it was 17.5 µM (inactive); in [9] it was 20.3 µM (inactive); in [10], 15.6 µM (inactive); in assay [11], 14.2 µM (inactive); in assay [12], 16.2 µM (inactive). Besides, the GI50 was 11 µM (inactive) in assay [13], 13.2 µM (inactive) in assay [14], 20.9 µM (inactive) in assay [15] and 16 µM (inactive) in assay [16].

In the case of `CCOCC(=O)N[C@H]1CCc2cc(OC(=O)COCC)c(OC)c(OC)c2-c2ccc(SC)c(=O)cc21`, the GI50 in assay [1] was 0.885 µM (active); in assay [2], 0.0256 µM (active); in assay [3], 0.0625 µM (active); in assay [4], 0.00708 µM (active); in [5], 0.0222 µM (active); in [6], 0.019 µM (active). Further, the GI50 in assay [7] was 0.0355 µM (active); in assay [8], 0.00867 µM (active); in assay [9] it was > 10 µM (inactive); in [10], 0.0307 µM (active); in assay [11], 0.0122 µM (active); in assay [12] it was 0.0571 µM (active). Further, the GI50 is 0.00195 µM (active) in [13], 0.0138 µM (active) in [14], 0.0301 µM (active) in assay [15] and 0.0171 µM (active) in assay [16].

For `Cn1c2c3ccc(Cl)cc3nc-2c(Cl)c2ccccc21`, the GI50 was 22.9 µM (inactive) in [1]; 20.9 µM (inactive) in [2]; 14.4 µM (inactive) in assay [3]; 16.9 µM (inactive) in [4]; 15.1 µM (inactive) in assay [5]; 21.4 µM (inactive) in [6]. Moreover, the GI50 in assay [7] was 27.3 µM (inactive); in assay [8], 49.4 µM (inactive); in [9] it was 11.9 µM (inactive); in [10] it was 20.2 µM (inactive); in assay [11], 40.6 µM (inactive); in assay [12], 22.9 µM (inactive). Moreover, the GI50 in [13] is 18.1 µM (inactive); in assay [14] it was 18.2 µM (inactive); in [15] it was 23 µM (inactive); in [16] it was 11.9 µM (inactive).

Take `C[O+]=C1C=CC(=C2SC(c3ccccc3)(c3ccccc3)c3ccccc32)C=C1.[O-][Cl+3]([O-])([O-])[O-]`: the GI50 is 39.8 µM (inactive) in [1]; 16.1 µM (inactive) in assay [2]; 20 µM (inactive) in assay [3]; 15.7 µM (inactive) in [4]; 26.2 µM (inactive) in [5]; 15.6 µM (inactive) in [6]. Besides, the GI50 in assay [7] is 22.5 µM (inactive); in [8] it was 38 µM (inactive); in assay [9], 20.8 µM (inactive); in assay [10], 32.1 µM (inactive); in assay [11] it was 18.6 µM (inactive); in assay [12], 17.8 µM (inactive). Moreover, the GI50 is 18.6 µM (inactive) in assay [13], 18.8 µM (inactive) in assay [14], 14.5 µM (inactive) in assay [15] and 31.6 µM (inactive) in [16].

On to `CCC(C)[C@@H](NC1=C(Cl)C(=O)c2c(O)ccc(O)c2C1=O)C(=O)OC` (some centres not stated), for which the GI50 is > 10 µM (inactive) in assay [1]; 2.31 µM (inactive) in assay [2]; 3.66 µM (inactive) in assay [3]; 3.92 µM (inactive) in [4]; 5.19 µM (inactive) in assay [5]; 4.2 µM (inactive) in assay [6]. The GI50 is 3.89 µM (inactive) in assay [7]; 6.68 µM (inactive) in [8]; > 10 µM (inactive) in assay [9]; 3.15 µM (inactive) in [10]; > 10 µM (inactive) in assay [11]; 9.23 µM (inactive) in assay [12]. Moreover, the GI50 was 3.55 µM (inactive) in assay [13], 1.8 µM (inactive) in [14], 4.14 µM (inactive) in [15] and 4.46 µM (inactive) in assay [16].

As for `[N-]=[N+]=NC[C@H]1OCO[C@H](CN=[N+]=[N-])[C@H]2OCCOCCOc3ccccc3OCCOCCO[C@@H]21`, the GI50 in assay [1], in assay [2], in assay [3], in [4], in assay [5] and in [6] was > 100 µM (inactive) throughout. Besides, the GI50 in assay [7], in assay [8], in assay [9], in assay [10], in assay [11] and in [12] was > 100 µM (inactive) each time. The GI50 in assay [13], in assay [14], in assay [15] and in assay [16] was > 100 µM (inactive) each time.

Take `CC1CCCCNC1=S` (configuration not stated): the GI50 in assay [1], in [2], in [3], in assay [4], in assay [5] and in assay [6] was > 10 µM (inactive) each time. Moreover, the GI50 in assay [7], in assay [8], in assay [9], in assay [10], in assay [11] and in [12] was > 10 µM (inactive) in each case. The GI50 in [13], in assay [14], in [15] and in [16] was > 10 µM (inactive) throughout.

For `Cc1cc(N(CCC#N)CCC#N)ccc1/C=C1\SC(=S)NC1=O`, the GI50 was > 100 µM (inactive) in assay [1]; 40.3 µM (inactive) in [2]; > 100 µM (inactive) in [3]; 62.2 µM (inactive) in assay [4]; > 100 µM (inactive) in assay [5]; > 100 µM (inactive) in assay [6]. In addition, the GI50 in [7] is 62.4 µM (inactive); in assay [8], 21.5 µM (inactive); in [9] it was 66.7 µM (inactive); in assay [10] it was 49.3 µM (inactive); in [11], 14.2 µM (inactive); in assay [12], 51.3 µM (inactive). In addition, the GI50 is 82.2 µM (inactive) in assay [13], 52.1 µM (inactive) in [14], > 100 µM (inactive) in assay [15] and > 100 µM (inactive) in [16].

For `COC(OC)(c1ccccc1)C(Br)Br`, the GI50 in assay [1] is > 100 µM (inactive); in assay [2] it was 18.6 µM (inactive); in [3], > 100 µM (inactive); in assay [4], > 100 µM (inactive); in assay [5] it was > 100 µM (inactive); in assay [6], > 100 µM (inactive). The GI50 in [7] is > 100 µM (inactive); in assay [8], > 100 µM (inactive); in assay [9], 39.7 µM (inactive); in [10], > 100 µM (inactive); in [11], 78 µM (inactive); in assay [12] it was > 100 µM (inactive). For the same compound, the GI50 in assay [13] was 20.2 µM (inactive); in [14], 16.7 µM (inactive); in [15], > 100 µM (inactive); in assay [16], 15.8 µM (inactive).

Consider `COc1ccc(OC)c(C2CCc3nc4nc(N)nc(N)c4cc3C2)c1` (configuration not stated), for which the GI50 in [1] was 2.43 µM (inactive); in [2], 1.8 µM (inactive); in assay [3], 1.77 µM (inactive); in assay [4] it was 2.29 µM (inactive); in assay [5], 5.66 µM (inactive); in assay [6], 1.97 µM (inactive). Moreover, the GI50 was 14.7 µM (inactive) in assay [7]; 4.1 µM (inactive) in assay [8]; 1.94 µM (inactive) in assay [9]; 2.47 µM (inactive) in [10]; 3.75 µM (inactive) in assay [11]; 13.4 µM (inactive) in assay [12]. In addition, the GI50 in assay [13] was 2.04 µM (inactive); in assay [14], 1.92 µM (inactive); in assay [15], 8.47 µM (inactive); in assay [16], 2.86 µM (inactive).

In the case of `NCCN/C(=N\c1ccccc1)Nc1ccccc1`, the GI50 in assay [1], in assay [2], in assay [3], in assay [4], in [5] and in [6] was > 100 µM (inactive) each time. Besides, the GI50 in assay [7] is > 100 µM (inactive); in assay [8] it was > 100 µM (inactive); in assay [9] it was > 10 µM (inactive); in assay [10], > 100 µM (inactive); in assay [11] it was > 100 µM (inactive); in [12], > 100 µM (inactive). Besides, the GI50 in [13], in [14], in assay [15] and in assay [16] was > 100 µM (inactive) throughout.

As to `COc1cc2c3c(cc(Cl)nc3c1OC)C(=O)C(=O)N2`, the GI50 in [1] was 22.9 µM (inactive); in assay [2], 15.6 µM (inactive); in assay [3], 8.99 µM (inactive); in assay [4] it was 16.4 µM (inactive); in [5] it was 17 µM (inactive); in assay [6], 14.1 µM (inactive). Besides, the GI50 in assay [7] is 19.7 µM (inactive); in [8] it was 18 µM (inactive); in [9], 3.68 µM (inactive); in assay [10], 18.2 µM (inactive); in assay [11], 30.4 µM (inactive); in assay [12] it was 6.81 µM (inactive). In addition, the GI50 in assay [13] was 1.79 µM (inactive); in assay [14], 2.06 µM (inactive); in assay [15], 21.1 µM (inactive); in [16], 5.85 µM (inactive).
